Starred links: 1 amine or outer side, 2 acyl side, 3 side chain; linkers in the order of their positions; H or OH if unused. Positions of bridges follow the written chain, without caps; N, C: chain ends. Non-standard residues stand in square brackets, D forms with d. Residues, ends and D or L forms follow the SMILES beside them. ξ: configuration not given here. X5 = NC(=O)CNC(=O)[C@H](CSCC(=O)[*:1])CC(=O)C1(N[*:2])CC1; Bta = N[C@@H](Cc1csc2ccccc12)C(=O)O; Hyp = O=C(O)[C@@H]1C[C@@H](O)CN1; NMeNle = CCCC[C@H](NC)C(=O)O; hLeu = CC(C)CC[C@H](N)C(=O)O; NMeA = CN[C@@H](C)C(=O)O; Dab = NCC[C@H](N)C(=O)O; Dap = NC[C@H](N)C(=O)O; Ac3c = NC1(C(=O)O)CC1; Aib = CC(C)(N)C(=O)O; ξC = NC(CS)C(=O)O; Sar = CNCC(=O)O
biological target: T1, PD-1-Ig binding to PD-L1-TVMV-His (PD-L1-His) (Homo sapiens, UniProt Q9NZQ7); assay: PD-1/PD-L1 Homogenous Time-Resolved Fluorescence (HTRF) binding assay; conditions: PD-1-Ig/PD-L1-His binding; numeric values
T1 construct: hPDL1(19-239)-TVMV-His; TVMV protease cleavage site (C); made in house; host or cells: HEK293T cells
T1 sequence (Q9NZQ7 with tags, fused parts or gaps): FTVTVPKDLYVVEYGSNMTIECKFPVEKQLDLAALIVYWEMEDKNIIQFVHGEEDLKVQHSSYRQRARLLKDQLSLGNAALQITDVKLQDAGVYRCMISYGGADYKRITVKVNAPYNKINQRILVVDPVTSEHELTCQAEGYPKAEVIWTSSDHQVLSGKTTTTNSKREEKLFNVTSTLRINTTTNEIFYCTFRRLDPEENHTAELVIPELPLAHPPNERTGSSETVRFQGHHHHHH
From the text: The ability of the macrocyclic peptides of the present disclosure to bind to PD-L1 was investigated using a PD-1/PD-L1 Homogenous Time-Resolved Fluorescence (HTRF) binding assay.
Homogenous Time-Resolved Fluorescence (HTRF) Assays of Binding of Soluble PD-1 to Soluble PD-L1. Soluble PD-1 and soluble PD-L1 refers to proteins with carboxyl-end truncations that remove the transmembrane-spanning regions and are fused to heterologous sequences, specifically the Fc portion of the human immunoglobuling G sequence (Ig) or the hexahistidine epitope tag (His). All binding studies were performed in an HTRF assay buffer consisting of dPBS supplemented with 0.1% (w/v) bovine serum albumin and 0.05% (v/v) Tween-20. For the PD-1-Ig/PD-L1-His binding assay, inhibitors were pre-incubated with PD-L1-His (10 nM final) for 15 m in 4 μl of assay buffer, followed by addition of PD-1-Ig (20 nM final) in 1 μl of assay buffer and further incubation for 15 m. PD-L1 fusion proteins from either human, cynomologous macaques, mouse, or other species were used. HTRF detection was achieved using europium crypate-labeled anti-Ig monoclonal antibody (1 nM final) and allophycocyanin (APC) labeled anti-His monoclonal antibody (20 nM final). Antibodies were diluted in HTRF detection buffer and 5 μl was dispensed on top of binding reaction. The reaction was allowed to equilibrate for 30 minutes and signal (665 nm/620 nm ratio) was obtained using an EnVision fluorometer. Additional binding assays were established between PD-1-Ig/PD-L2-His (20 and 5 nM, respectively), CD80-His/PD-L1-Ig (100 and 10 nM, respectively) and CD80-His/CTLA4-Ig (10 and 5 nM, respectively). Binding/competition studies between biotinylated Compound No. 71 and human PD-L1-His were performed as follows. Macrocyclic peptide inhibitors were pre-incubated with PD-L1-His (10 nM final) for 60 minutes in 4 μl of assay buffer followed by addition of biotinylated Compound No. 71 (0.5 nM final) in 1 μl of assay buffer. Binding was allowed to equilibrate for 30 minutes followed by addition of europium crypated labeled Streptavidin (2.5 pM final) and APC-labeled anti-His (20 nM final) in 5 μl of HTRF buffer. The reaction was allowed to equilibrate for 30 m and signal (665 nm/620 nm ratio) was obtained using an EnVision fluorometer.
Recombinant Proteins. Carboxyl-truncated human PD-1 (amino acids 25-167) with a C-terminal human Ig epitope tag [hPD-1 (25-167)-3S-IG] and human PD-L1 (amino acids 18-239) with a C-terminal His epitope tag [hPD-L1(19-239)-tobacco vein mottling virus protease cleavage site (TVMV)-His] were expressed in HEK293T cells and purified sequentially by recombinant Protein A affinity chromatography and size exclusion chromatography. Human PD-L2-His (Sino Biologicals), CD80-His (Sino Biologicals), CTLA4-Ig (RnD Systems) were all obtained through commercial sources.
Ranges are as follows: A=0.10-10 μM; B=0.01-0.099 μM; C=0.004-0.0099 μM.

Row | SMILES | IC50
1 | CCCC[C@H]1C(=O)N(C)[C@@H](CCCC)C(=O)N[C@@H](CCCNC(=N)N)C(=O)NC(C(=O)NCC(N)=O)CSCC(=O)N[C@@H](Cc2ccc(O)cc2)C(=O)NC2(CC2)C(=O)N[C@@H](CC(N)=O)C(=O)N2CCC[C@H]2C(=O)N[C@@H](Cc2c[nH]cn2)C(=O)N[C@@H](CC(C)C)C(=O)N2C[C@H](O)C[C@H]2C(=O)N[C@@H](Cc2c[nH]c3ccccc23)C(=O)N[C@@H](CO)C(=O)N[C@@H](Cc2c[nH]c3ccccc23)C(=O)N1C (stereo partly shown) [Example 9002] | 4.13 nM
2 | CCCC[C@H]1C(=O)N(C)[C@@H](CCCC)C(=O)NC2(CC2)C(=O)N[C@H](C(=O)NCC(N)=O)CSCC(=O)N[C@@H](Cc2ccc(O)cc2)C(=O)N(C)[C@@H](C)C(=O)N[C@@H](CC(N)=O)C(=O)N2CCC[C@H]2C(=O)N[C@@H](CN)C(=O)N[C@@H](CC(C)C)C(=O)N2C[C@H](O)C[C@H]2C(=O)N[C@@H](Cc2c[nH]c3ccccc23)C(=O)N[C@@H](CCN)C(=O)N[C@@H](Cc2c[nH]c3ccccc23)C(=O)N1C [Example 9006] ({CH2CO}-Y[NMeA]NP[Dap]L[Hyp]W[Dab]W[NMeNle][NMeNle][Ac3c]CG-NH2; thioether N-14) | 40 nM
3 | CCCC[C@H]1C(=O)N(C)[C@@H](CCCC)C(=O)N[C@@H](CC(C)C)C(=O)N[C@H](C(=O)NCC(N)=O)CSCC(=O)N[C@@H](Cc2ccc(O)cc2)C(=O)N(C)[C@@H](C)C(=O)N[C@@H](CC(N)=O)C(=O)N2CCC[C@H]2C(=O)N[C@@H](CN)C(=O)N[C@@H](CC(C)C)C(=O)N2C[C@H](O)C[C@H]2C(=O)N[C@@H](Cc2c[nH]c3ccccc23)C(=O)NC2(CC2)C(=O)N[C@@H](Cc2c[nH]c3ccccc23)C(=O)N1C [Example 9008] ({CH2CO}-Y[NMeA]NP[Dap]L[Hyp]W[Ac3c]W[NMeNle][NMeNle]LCG-NH2; thioether N-14) | 3620 nM

same assay, conditions: PD-1-Ig/PD-L1-His binding; values given as range classes

Row | SMILES | IC50
4 | CCCC[C@H]1C(=O)N(C)[C@@H](CCCC)C(=O)N[C@@H](CCCNC(=N)N)C(=O)N[C@H](C(=O)NCC(N)=O)CSCC(=O)N[C@@H](Cc2ccccc2)C(=O)N(C)[C@@H](C)C(=O)N[C@@H](CC(N)=O)C(=O)N2CCC[C@H]2C(=O)N[C@@H](Cc2cnc[nH]2)C(=O)N[C@@H](CC(C)C)C(=O)NC2(CCCC2)C(=O)N[C@@H](Cc2c[nH]c3ccccc23)C(=O)N[C@@H](CO)C(=O)N[C@@H](Cc2c[nH]c3ccccc23)C(=O)N1C [Example 1001] | 100 to 10000 nM
5 | CCCC[C@H]1C(=O)N(C)[C@@H](CCCC)C(=O)N[C@@H](CCCNC(=N)N)C(=O)N[C@H](C(=O)NCC(N)=O)CSCC(=O)N[C@@H](Cc2ccccc2)C(=O)N(C)[C@@H](C)C(=O)N[C@@H](CC(N)=O)C(=O)N2CCC[C@H]2C(=O)N[C@@H](Cc2cnc[nH]2)C(=O)N[C@@H](CC(C)C)C(=O)NC(C)(C)C(=O)N[C@@H](Cc2c[nH]c3ccccc23)C(=O)N[C@@H](CO)C(=O)N[C@@H](Cc2c[nH]c3ccccc23)C(=O)N1C [Example 1002] | 100 to 10000 nM
6 | CCCC[C@H]1C(=O)N(C)[C@@H](CCCC)C(=O)N[C@@H](CCCNC(=N)N)C(=O)N[C@H](C(=O)NCC(N)=O)CSCC(=O)N[C@@H](Cc2ccccc2)C(=O)N(C)[C@@H](C)C(=O)N[C@@H](CC(N)=O)C(=O)N2CCC[C@H]2C(=O)N[C@@H](Cc2cnc[nH]2)C(=O)N[C@@H](CC(C)C)C(=O)N(C)CC(=O)N[C@@H](Cc2c[nH]c3ccccc23)C(=O)NC(C)(C)C(=O)N[C@@H](Cc2c[nH]c3ccccc23)C(=O)N1C [Example 1003] ({CH2CO}-F[NMeA]NPHL[Sar]W[Aib]W[NMeNle][NMeNle]RCG-NH2; thioether N-14) | 100 to 10000 nM
7 | CCCC[C@H]1C(=O)N(C)[C@@H](CCCC)C(=O)NC2(CC2)C(=O)C[C@H](C(=O)NCC(N)=O)CSCC(=O)N[C@@H](Cc2ccccc2)C(=O)N(C)[C@@H](C)C(=O)N[C@@H](CC(N)=O)C(=O)N2CCC[C@H]2C(=O)N[C@@H](Cc2c[nH]cn2)C(=O)N[C@@H](CCC(C)C)C(=O)NCC(=O)N[C@@H](Cc2c[nH]c3ccccc23)C(=O)N[C@@H](CO)C(=O)N[C@@H](Cc2c[nH]c3ccccc23)C(=O)N1C [Example 5001] (F[NMeA]NPH[hLeu]GWSW[NMeNle][NMeNle]; linker N-C via X5) | 100 to 10000 nM
8 | CCCC[C@H]1C(=O)N(C)[C@@H](CCCC)C(=O)N[C@@H](CCCNC(=N)N)C(=O)NC(C(=O)NCC(N)=O)CSCC(=O)N[C@@H](Cc2ccc(O)cc2)C(=O)NC2(CC2)C(=O)N[C@@H](CC(N)=O)C(=O)N2CCC[C@H]2C(=O)N[C@@H](Cc2c[nH]cn2)C(=O)N[C@@H](CC(C)C)C(=O)N2C[C@H](O)C[C@H]2C(=O)N[C@@H](Cc2c[nH]c3ccccc23)C(=O)N[C@@H](CO)C(=O)N[C@@H](Cc2csc3ccccc23)C(=O)N1C (stereo partly shown) [Example 9001] ({CH2CO}-Y[Ac3c]NPHL[Hyp]WS[Bta][NMeNle][NMeNle]R[ξC]G-NH2; thioether N-14) | 4 to 9.9 nM
9 | CCCC[C@H]1C(=O)N(C)[C@@H](CCCC)C(=O)N[C@@H](CCCNC(=N)N)C(=O)NC(C(=O)NCC(N)=O)CSCC(=O)N[C@@H](Cc2ccc(O)cc2)C(=O)NC(C)(C)C(=O)N[C@@H](CC(N)=O)C(=O)N2CCC[C@H]2C(=O)N[C@@H](Cc2c[nH]cn2)C(=O)N[C@@H](CC(C)C)C(=O)N2C[C@H](O)C[C@H]2C(=O)N[C@@H](Cc2c[nH]c3ccccc23)C(=O)N[C@@H](CO)C(=O)N[C@@H](Cc2csc3ccccc23)C(=O)N1C (stereo partly shown) [Example 9003] ({CH2CO}-Y[Aib]NPHL[Hyp]WS[Bta][NMeNle][NMeNle]R[ξC]G-NH2; thioether N-14) | 10 to 99 nM
10 | CCCC[C@H]1C(=O)N(C)[C@@H](CCCC)C(=O)N[C@@H](CCCNC(=N)N)C(=O)NC(C(=O)NCC(N)=O)CSCC(=O)N[C@@H](Cc2ccc(O)cc2)C(=O)NC(C)(C)C(=O)N[C@@H](CC(N)=O)C(=O)N2CCC[C@H]2C(=O)N[C@@H](Cc2c[nH]cn2)C(=O)N[C@@H](CC(C)C)C(=O)N2C[C@H](O)C[C@H]2C(=O)N[C@@H](Cc2c[nH]c3ccccc23)C(=O)N[C@@H](CO)C(=O)N[C@@H](Cc2c[nH]c3ccccc23)C(=O)N1C (stereo partly shown) [Example 9004] | 10 to 99 nM
11 | CCCC[C@H]1C(=O)N(C)[C@@H](CCCC)C(=O)NC(C)(C)C(=O)N[C@H](C(=O)NCC(N)=O)CSCC(=O)N[C@@H](Cc2ccc(O)cc2)C(=O)N(C)[C@@H](C)C(=O)N[C@@H](CC(N)=O)C(=O)N2CCC[C@H]2C(=O)N[C@@H](CN)C(=O)N[C@@H](CC(C)C)C(=O)N2C[C@H](O)C[C@H]2C(=O)N[C@@H](Cc2c[nH]c3ccccc23)C(=O)N[C@@H](CCN)C(=O)N[C@@H](Cc2c[nH]c3ccccc23)C(=O)N1C [Example 9005] ({CH2CO}-Y[NMeA]NP[Dap]L[Hyp]W[Dab]W[NMeNle][NMeNle][Aib]CG-NH2; thioether N-14) | 100 to 10000 nM
12 | CCCC[C@H]1C(=O)N(C)[C@@H](CCCC)C(=O)N[C@@H](CC(C)C)C(=O)N[C@H](C(=O)NCC(N)=O)CSCC(=O)N[C@@H](Cc2ccc(O)cc2)C(=O)N(C)[C@@H](C)C(=O)N[C@@H](CC(N)=O)C(=O)N2CCC[C@H]2C(=O)N[C@@H](CN)C(=O)N[C@@H](CC(C)C)C(=O)N2C[C@H](O)C[C@H]2C(=O)N[C@@H](Cc2c[nH]c3ccccc23)C(=O)NC(C)(C)C(=O)N[C@@H](Cc2c[nH]c3ccccc23)C(=O)N1C [Example 9007] ({CH2CO}-Y[NMeA]NP[Dap]L[Hyp]W[Aib]W[NMeNle][NMeNle]LCG-NH2; thioether N-14) | 100 to 10000 nM
13 | CCCC[C@H]1C(=O)N(C)[C@@H](CCCC)C(=O)N[C@@H](CC(C)C)C(=O)N[C@H](C(=O)NCC(N)=O)CSCC(=O)N[C@@H](Cc2ccc(O)cc2)C(=O)N(C)[C@@H](C)C(=O)N[C@@H](CC(N)=O)C(=O)N2CCC[C@H]2C(=O)N[C@@H](CN)C(=O)NC(C)(C)C(=O)N2C[C@H](O)C[C@H]2C(=O)N[C@@H](Cc2c[nH]c3ccccc23)C(=O)N[C@@H](CCN)C(=O)N[C@@H](Cc2c[nH]c3ccccc23)C(=O)N1C [Example 9009] ({CH2CO}-Y[NMeA]NP[Dap][Aib][Hyp]W[Dab]W[NMeNle][NMeNle]LCG-NH2; thioether N-14) | 100 to 10000 nM

— patent US9944678B2, “Immunomodulators” (BRISTOL-MYERS SQUIBB COMPANY, priority 2014, dated 2018)
